Reference: ChEMBL document CHEMBL5036363, “Discovery and Lead Optimization of Benzene-1,4-disulfonamides as Oxidative Phosphorylation Inhibitors” (J Med Chem, 2022)
pIC50: −log10 of the molar value. Activity calls are given as the source filed them. The rule behind the calls is not given here.

Columns and labels:
Homo sapiens = species: Homo sapiens; assay: Inhibition of complex-I-dependent oxygen consumption in mitochondria of human PC-3 cells by luxcel-dye staining based MitoXpress method; type: functional, cell-based
[1] = Inhibition of oxidative phosphorylation complex I in human MIA PaCa-2 cells assessed as reduction in NAD+/NADH ratio incubated for 48 hrs by NAD/NADH-Glo assay; type: cell-based; details: MIA PaCa-2, 48 h
[2] = Inhibition of oxidative phosphorylation in human MIA PaCa-2 cells assessed as reduction in ATP production incubated for 24 hrs in galactose-containing medium by CellTiter-glo luminescence assay; type: functional, cell-based; details: MIA PaCa-2, 24 h
[3] = Microsomal stability in human liver microsomes assessed as half life at 10 uM measured upto 60 mins by LC-MS/MS analysis; type: ADME, Microsome; details: for half-life at 10 µM: liver microsomes; for t1/2: microsomes, 1 h, 10 µM
MIA PaCa-2 [4] = assay: Cytotoxicity against human MIA PaCa-2 cells assessed as inhibition of cell growth incubated for 3 days in galactose-containing medium by MTT assay; type: functional, cell-based; details: MIA PaCa-2, 72 h
MIA PaCa-2 [5] = assay: Cytotoxicity against human MIA PaCa-2 cells assessed as inhibition of cell growth incubated for 7 days in glucose-containing medium by MTT assay; type: functional, cell-based; details: MIA PaCa-2, 168 h
[6] = Microsomal stability in mouse liver microsomes assessed as half life at 10 uM measured upto 60 mins by LC-MS/MS analysis; type: ADME, Microsome; details: for t1/2: microsomes, 1 h, 10 µM
MIA PaCa-2 [7] = assay: Inhibition of oxidative phosphorylation in human MIA PaCa-2 cells assessed as reduction in ATP production incubated for 24 hrs in glucose-containing medium by CellTiter-glo luminescence assay; type: functional, cell-based
[8] = Cytotoxicity against human UM16 cells assessed as inhibition of cell growth; type: functional, cell-based
[9] = Inhibition of mitochondrial complex I (unknown origin) incubated for 20 hrs by Colorimetric assay
[10] = Inhibition of mitochondrial complex I in human pancreatic cancer cells assessed as reduction in oxygen consumption rate measured immediately by seahorse XFe96 analyser based assay; details: pancreatic cancer cell
BXPC-3 = assay: Cytotoxicity against human BXPC-3 cells assessed as inhibition of cell growth incubated for 7 days in glucose-containing medium by MTT assay; type: functional, cell-based; details: BXPC-3, 168 h
MIA PaCa-2 [11] = assay: Cytotoxicity against human MIA PaCa-2 cells assessed as inhibition of cell growth incubated for 3 days in glucose-containing medium by MTT assay; type: functional, cell-based; details: MIA PaCa-2, 72 h
[12] = Toxicity in C57BL/6 mouse xenografted with human MIA PaCa-2 cells assessed as body weight loss at 5 mg/kg, ip measured twice a week for 28 days; type: organism-based; details: in vivo, 672 h, time 28 day
MIA PaCa-2 [13] = assay: Antitumor activity against human MIA PaCa-2 cells xenografted in C57BL/6 mouse syngeneic model assessed as tumor growth inhibition at 5 mg/kg, ip measured upto 28 days by digital caliper method; type: functional, organism-based; details: time day <=28
[14] = Kinetic aqueous solubility of the compound by turbidimetric method; type: physicochemical; details: buffer
NCI-H460 = assay: Cytotoxicity against human NCI-H460 cells assessed as reduction in galactose-dependent cell viability incubated for 3 days by IncuCyte live-cell imaging assay; type: functional, cell-based; details: NCI-H460, 72 h
[15] = Inhibition of mitochondrial complex I in human HepG2 cells assessed as reduction in oxygen consumption rate incubated for 6 hrs by seahorse XF analyser based assay; type: cell-based
[16] = Drug metabolism in mouse liver microsomes assessed as formation of de-ethylated diethyl-sulfonamide moiety metabolite at 10 uM measured after 7 to 30 mins by LC-MS/MS analysis; type: ADME, Microsome; details: time 7-30 min
[17] = Drug metabolism in mouse liver microsomes assessed as formation of hydroxylated piperidine ring moiety metabolite at 10 uM measured after 7 to 30 mins by LC-MS/MS analysis; type: ADME, Microsome; details: time 7-30 min

| t1/2 [3] | t1/2 [6] | SMILES | pIC50 [1] | pIC50 [2] | pIC50 (MIA PaCa-2 [4]) | pIC50 (MIA PaCa-2 [5]) | inhibition (MIA PaCa-2 [7]) | pIC50 (BXPC-3) | pIC50 (MIA PaCa-2 [11]) | further results |
| --- | --- | --- | --- | --- | --- | --- | --- | --- | --- | --- |
|  |  | Cc1cc(-c2nc(-c3ccc(OC(F)(F)F)cc3)no2)nn1Cc1ccnc(N2CCN(C3CC3)CC2)c1 |  |  |  |  |  |  |  | pIC50 (Homo sapiens): 8.00 |
|  |  | CC(C)c1noc(N2CCN(C(=O)[C@@H]3CCCN(S(=O)(=O)c4ccc(S(=O)(=O)C(C)C)cc4)C3)CC2)n1 | 7.52 | 7.53 | < 5.00 | 7.15 | inactive |  |  | half-life at 10 µM [3]: > 60 min; half-life at 10 µM ([6]; liver microsomes): > 60 min |
|  |  | CCOC(=O)[C@H]1CCCN(S(=O)(=O)c2ccc(S(=O)(=O)N(CC)CC)cc2)C1 |  |  |  |  |  |  |  | pIC50 [8]: 5.02 |
|  |  | FC(F)(F)c1ccc(/C=C/c2nc(COc3ccc(CCCCn4ccnn4)cc3)co2)cc1 [MUBRITINIB] |  |  |  |  |  |  |  | pIC50 [9]: 7.29 |
|  |  | CCOC(=O)C1CCCN(S(=O)(=O)c2ccc(S(=O)(=O)N(CC)CC)cc2)C1 (racemic) |  |  |  |  |  |  |  | pIC50 [8]: 6.24 |
|  |  | CN(C)C(=N)NC(=N)N [METFORMIN] |  |  |  |  |  |  |  | pIC50 [10]: 3.10 |
| 2.53 min | 7.77 min | CCC(CC)S(=O)(=O)c1ccc(S(=O)(=O)N2CCC[C@@H](C(=O)N3CCN(c4nc(C(C)C)no4)CC3)C2)cc1 |  |  |  | 7.30 |  | 6.92 |  |  |
| 3.36 min | 29.36 min | CC(C)NS(=O)(=O)c1ccc(S(=O)(=O)N2CCC[C@@H](C(=O)N3CCN(c4nc(C(C)C)no4)CC3)C2)cc1 |  |  | < 5.00 | 5.59 |  | 5.59 | 6.70 |  |
| 12.76 min | 10.47 min | CCN(CC)C(=O)c1ccc(S(=O)(=O)N2CCC[C@@H](C(=O)N3CCN(c4nc(C(C)C)no4)CC3)C2)cc1 |  |  | < 5.00 | 7.00 |  | 5.85 | 7.15 |  |
| 18.5 min | 27.1 min | CCN(CC)S(=O)(=O)c1ccc(S(=O)(=O)N2CCC[C@@H](C(=O)NC3COC3)C2)cc1 | 5.78 | 6.02 | < 5.00 | 5.64 | inactive | 4.86 | 6.05 |  |
|  |  | CC(C)c1noc(N2CCN(C(=O)[C@@H]3CCCN(S(=O)(=O)c4ccc(S(=O)(=O)C5CCC5)cc4)C3)CC2)n1 | 7.80 | 7.37 | < 5.00 | 7.15 | inactive |  | 7.70 | Activity [12]: Non-Toxic; Activity (MIA PaCa-2 [13]): Active |
|  | 32.58 min | CC(C)c1noc(C2CCN(C(=O)[C@@H]3CCCN(S(=O)(=O)c4ccc(S(=O)(=O)C(C)C)cc4)C3)CC2)n1 | 8.15 | 7.76 | < 5.00 | 7.30 | inactive |  | 7.70 | half-life at 10 µM [3]: > 60 min |
| 0.64 min | 0.7 min | CCOC(=O)[C@@H]1CCCN(S(=O)(=O)c2ccc(S(=O)(=O)N(CC)CC)cc2)C1 | 6.51 | 6.93 | < 5.00 | 6.40 | inactive | 6.22 | 7.05 | pIC50 [8]: 6.51; solubility [14]: > 200 µM |
|  |  | Cc1nc(-c2nc(-c3ccc(OC(F)(F)F)cc3)no2)nn1Cc1cccc(N2CCC(S(C)(=O)=O)CC2)c1 |  |  |  |  |  |  |  | pIC50 (NCI-H460): 8.85 |
|  |  | N=C(N)NC(=N)NCCc1ccccc1 [PHENFORMIN] |  |  |  |  |  |  |  | pIC50 [15]: 5.42 |
|  |  | CCOC(=O)[C@@H]1C[C@H](O)CN(S(=O)(=O)c2ccc(S(=O)(=O)N(CC)CC)cc2)C1 (relative stereo) |  |  | < 5.00 | 5.89 |  | 5.48 | 6.52 |  |
|  |  | CCNS(=O)(=O)c1ccc(S(=O)(=O)N2CCC[C@@H](C(=O)N3CCN(c4nc(C(C)C)no4)CC3)C2)cc1 |  |  | < 5.00 | 5.48 |  | 5.16 | 6.70 |  |
|  |  | CCN(CC)S(=O)(=O)c1ccc(S(=O)(=O)N2CCC[C@@H](C(=O)NC3CN(C(=O)NC(C)(C)C)C3)C2)cc1 |  |  | < 5.00 | 5.47 |  | 5.00 | 5.85 |  |
| 1.7 min | 7.7 min | CCN(CC)S(=O)(=O)c1ccc(S(=O)(=O)N2CCC[C@@H](C(=O)N3CCN(c4nc(C(C)C)no4)CC3)C2)cc1 | 8.09 | 7.51 | < 5.00 | 7.30 | inactive |  |  | Drug metabolism [16]: Metabolite_Detected; Drug metabolism [17]: Metabolite_Detected |
